From patent US4968686A, “Acyclic pyrrolo [2,3-d]pyrimidine analogs as antiviral agents” (The Regents of The University of Michigan, priority 1989, dated 1990) come the findings set out here.

One data set in a line: in vitro. Format: cell-based, human. The settings on record: human, kb cells. Here is the method:
KB or HFF cells were planted using a Costar Transplate-96 (Costar, Cambridge, Mass.) in Costar 96-well cluster dishes at a concentration of 10,000 to 12,000 cells per well. Wells were suspended in 200 μl of medium [MDM(H) plus 0.7 gm/liter NaCHO3 supplemented with 10% calf serum] per well. After incubation of 16 to 24 hours at 37° C. in a humidified atmosphere of 4% CO2 in air, […] of medium was removed per well. One-hundred μl of medium with or without compounds in twice their final concentrations was added to each well using a Titertek Multichannel Pipette. Final concentrations of compounds ranged from 0.1 to 320 μM. Fifty μl of medium containing radioactive precursors also was added to each well to give a final concentration to 1 to 3 μCi/ml of labeled precursor. [^3 H]Thd was diluted with unlabeled dThd to give a final concentration of 3 or 6 μM.
Logarithmic cell growth occurred during this time with continual uptake of labeled precursors. At the end of the incubation period, cells were individually harvested from each well using a Skatron Cell harvester (Skatronh, Inc., Sterling, Va.). Cultures for individual wells were harvested onto filter paper and washed free of unincorporated label with nine sequential washes with 5% trichloroacetic acid, nine washes with water, and nine with ethanol using the Skatron unit. Filters were dried, circles from individual cultures were punched from the filter mat and placed into mini-vials. Liquid scintillation solution was added, and radioactivity determined in a Beckman model LS8100 liquid scintillation spectrometer. All samples were counted for 2.0 minutes each, with three rounds of counting. Counts per minute were determined following the application of statistical methods to eliminate count rates which fell outside distribution limits defined by Chauvenet's rejection criterion.
All analyses were performed in triplicate. That is, three culture wells were used per time point, radioactive precursor, and drug concentration in all experiments. Results from triplicate assays were converted to percent of control and plotted as log dose-response curves from which 50% inhibitor (I50) concentrations were interpolated. Three concentrations of vidarabine were included on all plates as a positive control.
(§1) Dose-response relationships were used to compare drug effects. These were constructed by linearly regressing the percent inhibition of parameters derived in the preceding sections against log drug concentrations. The 50% inhibitory (I50) concentrations were calculated from the regression lines using the methods described by Goldstein. See Goldstein, A., Biostatistics: An Introductory Text, MacMillan, N.Y., 1964, pp. 156-161. Along with the I50 concentration for visual cytotoxicity, the averaged I50 concentrations are compared to I50 concentrations for inhibition for HCMV or HSV-1 replication. Compounds for which the ratio of cytotoxicity I50 concentrations to antiviral I50 concentrations (in vitro therapeutic index) were greater than 10, were considered for further study.

For a further data set, the system named is HCMV. The experiment in a line: HCMV plaque (focus) reduction assay. Format: cell-based. The settings on record: Human betaherpesvirus 5; Table 1; HFF cells; read-out: 50% Inhibitory Concentration HCMV Plaque.
Excerpt: The 148 strain of HSV-1 was used in most experiments and was provided by Dr. T. W. Schafer of Schering corporation. The HF strain of HSV-1 was used in selected experiments and was obtained from Dr. G. H. Cohen, University of Pennsylvania. The Towne strain, plaque-purified isolate Po, of HCMV was a gift of Dr. Mark Stinski, University of Iowa.
HCMV was titered in 24-well cluster dishes which were planted to contain 5×10^4 cells/well, grown as described above. When the cells were 70 to 80% confluent, 0.2 ml of the virus suspension was added per wall and adsorbed as described above. At least three ten-fold dilutions of each preparation were used. Following virus adsorption, the cell sheets were overlayed with 0.5% methocel (4000 CPS) in maintenance medium [MEM(E) with 1.1 gm/liter NaHCO3, 100 units/ml penicillin G, 100 μg/ml streptomycin, and 5% fetal bovine serum]. The cultures were incubated in a humidified atmosphere of 4% CO2 -96% air. Viral foci were visible 5 to 7 days after infection using at least 10-fold magnification. Cells were fixed and stained by a 10-minute exposure to a 0.1% solution of crystal violet in 20% methanol 7 to 12 days after infection. Microscopic foci were enumerated at 20-fold magnification using a Nikon Profile Projector.
The effect of compounds of the replication of HCMV has been measured using both a plaque (focus) reduction assay and a titer (yield) reduction assay. For the former, HFF cells in 24-well culture dishes were infected with approximately 50 p.f.u. of HCMV per well using the procedures detailed above. Compounds dissolved in growth medium were added in three to six selected concentrations to triplicate wells following virus adsorption. Following incubation at 37° C. for 7 to 10 days, cell sheets were fixed, stained and microscopic foci were enumerated as described above. Drug effects were calculated as a percentage of reduction in number of foci in the presence of each drug concentration compared to the number observed in the absence of drug. DHPG (ganciclovir) was used as a positive control in all experiments.
as §1

Structures are written as SMILES.

One may read the CC50 as the concentration at which the toxic effect on the cells reaches its halfway point.

Take `Nc1nc2c(ncn2COCCO)c(=O)[nH]1` [Acyclovir, reference compound]: the CC50 in “in vitro” was more than 100 µM. Moreover, the IC50 with HCMV was found to be 63 µM.
In the same order, the values of `Nc1nc(O)c2ncn(COC(CO)CO)c2n1` [Ganciclovir (DHPG), reference compound] are 1000 µM and 8.7 µM.
In the same order, the values of `Nc1ncnc2c1c(Cl)cn2COCCO` [UMJD 100, 4-Amino-5-chloro-7-(2-hydroxyethoxymethyl)pyrrolo[2,3-d]-pyrimidine] are 350 µM and 22 µM.
In the same order, the values of `Nc1ncnc2c1c(Br)cn2COCCO` [UMJD 102, 4-Amino-5-bromo-7-(2-hydroxyethoxymethyl)pyrrolo[2,3-d]-pyrimidine] are 100 µM and 3.5 µM.
In the case of `Nc1ncnc2c1c(I)cn2COCCO` [UMJD 104, 4-Amino-5-iodo-7-(2-hydroxyethoxymethyl)pyrrolo[2,3-d]-pyrimidine], the half-maximal cytotoxic concentration (CC50) in the data set “in vitro” worked out at 94 µM. The IC50 with HCMV was determined as 24 µM.
In the same order, the values of `Nc1ncnc2c1c(Br)cn2COC(CO)CO` [UMJD 183, 4-amino-5-bromo-7-[(1,3-dihydroxy-2-propoxy)methyl]-pyrrolo[2,3-d]pyrimidine] are 25 µM and 1.6 µM.
In the data set “in vitro”, `Nc1ncnc2c1c(Cl)cn2COC(CO)CO` [UMJD 186, 4-amino-5-chloro-7-[(1,3-dihydroxy-2-propoxy)-methyl]pyrrolo[2,3-d]pyrimidine] displayed a cytotoxic concentration (CC50) of more than 100 µM. In addition, in the data set with HCMV, the IC50 is 9.8 µM.
In the same order, the values of `OCC(CO)OCn1cc(Br)c2c(NO)ncnc21` [UMJD 299, 4-hydroxylamino-5-bromo-7-[(1,3-dihydroxy-2-propoxy)methyl]pyrrolo[2,3-d]pyrimidine] are 357 µM and 1.2 µM.
